{"source": "patent US20230143604A1", "about": "“QW DOSING OF GIP RECEPTOR AGONIST PEPTIDE COMPOUNDS AND USES THEREOF” (TAKEDA PHARMACEUTICAL COMPANY LIMITED, priority 2020, published 2023)", "key": {"male ferrets": {"system": "male ferrets", "assay_type": "in vivo", "method": "1. Effect of subcutaneously administered GIP receptor agonist peptide in morphine-induced acute emetic model.\nTo evaluate the antiemetic effect, the GIP receptor agonist peptides other than natural human GIP are subcutaneously administered into male ferrets 24 hrs before morphine administration. Up to 60 minutes after morphine administration, the condition of the ferrets is monitored to record the frequencies and time points of abdominal contraction motions, vomiting behaviors, licking with the tongue, and fidgety behavior occurring. GIP receptor agonist peptide compounds of the present disclosure dosed at 0.3-10 nmol/kg attenuated the morphine (0.6 mg/kg, s.c.)-induced emesis in the ferrets.\nGIP receptor agonist peptides are dissolved with a vehicle (0.09 w/v % tween 80/10% DMSO/saline), respectively, to prepare test solutions. […] of the test solutions and the vehicle are subcutaneously administered to ferrets (4 in each group), respectively. At the time of each of 4 or 24 hours after administration, 0.6 mg/kg of morphine is subcutaneously administered."}, "physchem": {"test": "physchem", "in_short": "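3 mg of peptide treated with 100 μL portions of 200 mM phosphate buffer pH 7.4, sonicating/vortexing up to 1 min, with further buffer added until fully dissolved. Solubility then quantified by HPLC.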"}, "female beagle dogs": {"system": "female beagle dogs", "test": "PYY-1119-induced vomiting in dogs", "assay_type": "in vivo", "conditions": "3 nmol/kg s.c., 72 hours post-dose (lower line)", "method": "The GIPR agonist peptide compounds of the present disclosure or vehicle (0.09% [w/v] Tween 80/10% DMSO/PBS) were administered subcutaneously (sc) at 3-10 nmol/kg to female beagle dogs (10 months old), followed by sc injections with Y2R agonist ((4-imidazolecarbonyl-Ser-D-Hyp-Iva-Pya(4)-Cha-Leu(Me)-Asn-Lys-Aib-Thr-Arg-Gln-Arg-Cha-NH2), […]), […]) at 1 hour or specified hours in the table postdose. Emetic episodes were counted for 2 hours after administration (by blinded analysis)."}}, "data": [{"smiles": "CC[C@H](C)[C@H](NC(=O)[C@H](CO)NC(=O)[C@H](Cc1ccc(O)cc1)NC(=O)[C@H](CC(=O)O)NC(=O)[C@H](CO)NC(=O)[C@@H](NC(=O)[C@H](Cc1ccccc1)NC(=O)[C@@H](NC(=O)CNC(=O)[C@H](CCC(=O)O)NC(=O)C(C)(C)NC(=O)[C@H](Cc1ccc(O)cc1)NC)[C@@H](C)O)[C@@H](C)CC)C(=O)N[C@@H](C)C(=O)N[C@@H](CC(C)C)C(=O)N[C@@H](CC(=O)O)C(=O)N[C@@H](CCCNC(=N)N)C(=O)N[C@@H](CCCCNC(=O)CNC(=O)CNC(=O)CNC(=O)CNC(=O)CNC(=O)CCCCCCCCCCCCCCCCC(=O)O)C(=O)N[C@@H](C)C(=O)N[C@@H](CCC(N)=O)C(=O)NC(C)(C)C(=O)N[C@@H](CC(=O)O)C(=O)N[C@@H](Cc1ccccc1)C(=O)N[C@H](C(=O)N[C@@H](CC(N)=O)C(=O)N[C@@H](Cc1c[nH]c2ccccc12)C(=O)N[C@@H](CC(C)C)C(=O)N[C@@H](CC(C)C)C(=O)N[C@@H](C)C(=O)N[C@@H](CCC(N)=O)C(=O)N[C@@H](CO)C(=O)N1CCC[C@H]1C(=O)N[C@@H](CO)C(=O)N[C@@H](CO)C(=O)NCC(=O)N[C@@H](C)C(=O)N1CCC[C@H]1C(=O)N1CCC[C@H]1C(=O)N1CCC[C@H]1C(=O)N[C@@H](CO)C(N)=O)C(C)C", "note": "[Compound 50, Me-Y-Aib-E-G-T-F-I-S-D-Y-S-I-A-L-D-R-Km-A-Q-Aib-D-F-V-N-W-L-L-A-Q-S-P-S-S-G-A-P-P-P-S-NH2]", "values": [{"measurement": "% inhibition of emetic events at doses (nmol/kg) and timepoints shown in ferret morphine model", "setting": "male ferrets; 4 hrs, 0.3 nmol/kg s.c.", "value": "4 hrs: 27% (0.3 nmol/kg);"}, {"measurement": "effect on morphine-induced emesis in ferrets (in words)", "setting": "male ferrets; morphine 0.6 mg/kg s.c., peptides dosed at 0.3-10 nmol/kg s.c.", "value": "effective in completely inhibiting the frequency of emesis"}, {"measurement": "solubility", "setting": "physchem; pH 7.4", "value": "≥ 15", "unit": "mg/mL"}, {"measurement": "solubility", "setting": "physchem; pH 7.4, aqueous buffer", "value": "≥ 60", "unit": "mg/mL"}, {"measurement": "Inhibition (%) of PYY-1119-induced emetic event", "setting": "female beagle dogs", "value": "97% (3 nmol/kg)"}]}]}
